We go through 8 compounds from patent publication US20070111981A1, “New (hetero)aryl compounds with MCH antagonistic activity and medicaments comprising these compounds” (priority 2005, published 2007).

System in one data set: not given
Assay: not given
Details: not given
Compound `CC1CCN(Cc2ccc(NCCCc3ccc(-c4ccc(Cl)cc4)cc3)cc2)CC1` [Example 1.1, [3-(4′-Chloro-biphenyl-4-yl)-propyl]-[4-(4-methyl-piperidin-1-ylmethyl)-phenyl]-amine] returned a melting point of 69 to 71 °C.

In turn, `CN(C)Cc1ccc(NCCCc2ccc(-c3ccc(Cl)cc3)cc2)cc1` [Example 4.1, [3-(4′-Chloro-biphenyl-4-yl)-propyl]-(4-dimethylaminomethyl-phenyl)-amine] yielded a melting point of 85 to 90 °C.

`OC1(C(F)(F)F)CCN(Cc2ccc(NCCCc3ccc(-c4ccc(Cl)cc4)cc3)nc2)CC1` [Example 5.1] showed a melting point of 170 to 172 °C.

Turning to `COc1ccc(-c2ccc(CCCNc3ccc4c(c3)CN(C)CC4)nn2)cc1` [Example 19.1, {3-[6-(4-Methoxy-phenyl)-pyridazin-3-yl]-propyl}-(2-methyl-1,2,3,4-tetrahydro-isoquinolin-7-yl)-amine], the melting point lay in the range of 130 to 133 °C.

Compound `Oc1ccc(-c2ccc(CCCNc3ccc(CN4CCC(O)(C(F)(F)F)CC4)cc3)nn2)cc1` [Example 21.1] gave a melting point of 200 to 204 °C.

In another data set the target is T1, hMCH-1R (Homo sapiens, UniProt Q99705).
T1 construct: expressed in transfected cells
T1 sequence (Q99705 whole entry): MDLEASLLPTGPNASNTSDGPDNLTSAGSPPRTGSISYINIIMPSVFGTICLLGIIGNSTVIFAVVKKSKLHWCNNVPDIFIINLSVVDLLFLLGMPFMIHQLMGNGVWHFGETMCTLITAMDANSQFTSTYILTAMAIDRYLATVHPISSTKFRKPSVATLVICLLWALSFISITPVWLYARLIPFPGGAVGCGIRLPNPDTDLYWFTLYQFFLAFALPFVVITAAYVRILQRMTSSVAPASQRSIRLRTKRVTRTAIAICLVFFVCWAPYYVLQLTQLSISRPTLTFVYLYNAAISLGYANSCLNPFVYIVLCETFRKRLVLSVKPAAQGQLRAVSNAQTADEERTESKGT
The data set can be described thus: MCH-1 receptor binding test (125I-MCH binding to membranes of hMCH-1R transfected CHO/Galpha16 cells). The settings on record: displacement of 125I-MCH, hMCH-1R CHO/Galpha16 membranes. The protocol:
MCH-1 Receptor Binding Test
Method: MCH binding to hMCH-1R transfected cells
Test cell: hMCH-1R stably transfected into CHO/Galphal 6 cells
Membranes from CHO/Galphal6 cells stably transfected with human hMCH-1R are resuspended using a syringe (needle 0.6×25 mm) and diluted in test buffer (50 mM HEPES, 10 mM MgCl2, 2 mM EGTA, pH 7.00; 0.1% bovine serum albumin (protease-free), 0.021% bacitracin, 1 μg/ml aprotinin, 1 μg/ml leupeptin and 1 μM phosphoramidone) to a concentration of 5 to 15 μg/ml.
After the incubation the reaction is filtered using a cell harvester through 0.5% PEI treated fibreglass filters (GF/B, Unifilter Packard). The membrane-bound radioactivity retained on the filter is then determined after the addition of scintillator substance (Packard Microscint 20) in a measuring device (TopCount of Packard).
The non-specific binding is defined as bound radioactivity in the presence of 1 micromolar MCH during the incubation period.
The analysis of the concentration binding curve is carried out on the assumption of one receptor binding site.
In turn, `COc1ccc(-c2ccc(CCCNc3ccc(CN4CCC(NC(C)=O)C4)cc3)nn2)cc1` (centres unmarked) [Example 3.30, N-[1-(4-{3-[6-(4-Methoxy-phenyl)-pyridazin-3-yl]-propylamino}-benzyl)-pyrrolidin-3-yl]-acetamide] showed an IC50 of 79 nM.

Turning to `COc1ccc(-c2ccc(NCCCc3ccc(CN4CCC(O)CC4)cc3)nn2)cc1` [Example 9.1, 1-(4-{3-[6-(4-Methoxy-phenyl)-pyridazin-3-ylamino]-propyl}-benzyl)-piperidin-4-ol], the half-maximal inhibitory concentration (IC50) turned out to be 174 nM.

In the case of `CCN(CC)CCOc1ccc(OCCOc2ccc(I)cc2Cl)cc1Cl` [Example 12.1, (2-{2-Chloro-4-[2-(2-chloro-4-iodo-phenoxy)-ethoxy]-phenoxy}-ethyl)-diethyl-amine], the IC50 was determined as 172 nM.
